The results in this text go back to US10881720B2, “Nanoparticles for immune stimulation” (THE BOARD OF REGENTS OF THE UNIVERSITY OF TEXAS SYSTEM, priority 2014, dated 2021).

Test [1] concerns iNKT cells. The test can be described thus: In vitro CFSE-dilution proliferation of iNKT cells in splenocyte culture. The class given is cell-based, WT C57BL/6 mice. The following applies: for percent of iNKT cells proliferated (CFSE dilution): three days of culture. As for the experimental part: (§1) Even activation of both iNKT and B cells by the weak agonist, soluble βGlcCer was enhanced by encapsulation of this glycolipid in nanoparticles (βGC-NanoP). Nanoparticles lacking glycolipids were not stimulatory for either iNKT or B cells in this assay (data not shown). Nanoparticles were assessed by Mass Spectrometry and Scanning Electron Microscopy for lipid content and particle size. In the study, spleen cells were isolated, then labeled with carboxyfluorescein diacetate succinimidyl ester (CFSE) and cultured for 3 days with soluble αGalCer, soluble βGlcCer, αGC-NanoPs, or βGC-NanoPs at concentrations of glycolipid noted. […] FIG. 2B is a graph showing a summary of the data in FIG. 2A. […] FIGS. 2C and 2D show the percentage of B220+ cells that dilute CFSE after 3 days of in vitro culture with soluble αGalCer and αGC-NanoP (FIG. 2C), or soluble βGlcCer and βGC-NanoP (FIG. 2D). Results shown are representative of 2 experiments, duplicate wells. *=p≤0.05 as compared to soluble glycolipid.
Total spleen cells from WT C57BL/6 mice were removed, a single cell suspension was created, and red blood cells were lysed. Splenocytes were labeled with carboxyfluorescein succinimidyl ester (CFSE) using standard procedures and then cultured at 2×10^6 cells/well in a 96 well flat bottom tissue culture plate. At the initiation of this culture, cells were coincubated with 10 pg/ml or 10 ng/ml of αGalCer, βGlcCer, αGC-NanoP, βGC-NanoP, or left in media only. After three days of culture, cells were removed from the wells, labeled with fluorescently tagged lineage specific markers (anti-B220 for B cells and anti-TcRβ plus CD1d-tetramer for iNKT cells) and assessed for cell type specific CFSE dilution by FACS analysis. […] In comparison, 39% of iNKT cells proliferated in response to αGC-NanoP at the 10 ng/ml dose and 35% responded vigorously to the 10 pg/ml dose.

Test [2] concerns splenic B cells. The test can be described thus: In vitro CFSE-dilution proliferation of B220+ B cells in splenocyte culture. In kind it is cell-based, WT C57BL/6 mice. The following applies: over the doses tested (10 pg/ml, 10 ng/ml), three days. The procedure:
as §1
Total spleen cells from WT C57BL/6 mice were removed, a single cell suspension was created, and red blood cells were lysed. […] After three days of culture, cells were removed from the wells, labeled with fluorescently tagged lineage specific markers (anti-B220 for B cells and anti-TcRβ plus CD1d-tetramer for iNKT cells) and assessed for cell type specific CFSE dilution by FACS analysis. […]

Turning to `CCCCCCCCCCCCCCCCCCCCCCCCCC(=O)N[C@@H](CO[C@H]1O[C@H](CO)[C@H](O)[C@H](O)[C@H]1O)[C@H](O)[C@H](O)CCCCCCCCCCCCCC` [αGalCer, αGalactosylceramide], the “percent of iNKT cells proliferated (CFSE dilution)” value in test [1] (10 pg/ml glycolipid) is reported as “not responsive”; in test [1] (10 ng/ml glycolipid), 44%. Further, the “B cell proliferation (CFSE dilution)” value in test [2] is “only to the higher doses”.
Consider βGlucosylceramide [βGlcCer], for which, in test [1] (either dose tested (10 pg/ml, 10 ng/ml), three days), the “stimulation of iNKT cells” value is “neither βGlcCer alone nor βGC-NanoP were stimulatory”. For the same compound, in test [2], the “B cell proliferation (CFSE dilution)” value is “not to the doses tested”.
